The subject of experiment [1] is mouse receptor Olfr1193, Olfr1093, Olfr1097, Olrf166, Olfr169, Olfr738 and Olfr742, and human receptor OR4S2 and OR52N5. The experiment is described as follows: cAMP HTRF dose-response assay in HEK293T cells expressing odorant receptors (Example 2). In kind it is cell-based. The conditions noted are these: increasing concentrations of odorant, receptors co-transfected with human Golf.

Experiment [2] has as its system mouse receptors Olfr1193, Olfr1093, Olfr1097, Olfr166, Olfr169, Olfr738, Olfr742 and human odorant receptor OR4S2. The experiment can be described thus: cAMP HTRF dose-response assay, DMTS/DMDS response profiles (Example 5). The format is cell-based. The conditions noted are these: increasing concentration of compound; relative to butyric acid control. As for the experimental part:
Functional dose-response experiments were performed to evaluate the level of DMTS activity of the modified cell line expressing individual putative DMTS receptors. Using a cell-based assay, mouse receptor Olfr1193, Olfr1093, Olfr1097, Olrf166, Olfr169, Olfr738 and Olfr742, and human receptor OR4S2 and OR52N5 were tested in an HEK293T cell line wherein the endogenous RTP1 gene has been activated and the odorant receptor chaperone protein was expressed (described in WO2016/201153). The mouse receptor genes were tagged with a Lucy-FLAG®-Rho tag combination and the human receptors were tagged with a Rho-FLAG® tag combination resulting in a tag:receptor fusion protein for the cell based assay. Receptor genes were co-transfected with the canonical olfactory human G-protein alpha subunit Golf gene and were exposed to increasing concentrations of the malodor odorant. Co-expression of the human Golf activates the Gs transduction pathway that leads to an internal cAMP increase upon binding to the appropriate ligand. Odorant-induced activity was detected by measuring the cAMP increase in the cytosol using an Homogeneous Time Resolved Fluorescence (HTRF) based kit (CisBio, cAMP dynamic 2 kit, cat. 62AM4PEJ). […]

Another experiment addresses T1, mouse receptor Olfr742 (Mus musculus, UniProt A2RTP5).
T1 construct: cAMP HTRF
T1 sequence (A2RTP5 1-311): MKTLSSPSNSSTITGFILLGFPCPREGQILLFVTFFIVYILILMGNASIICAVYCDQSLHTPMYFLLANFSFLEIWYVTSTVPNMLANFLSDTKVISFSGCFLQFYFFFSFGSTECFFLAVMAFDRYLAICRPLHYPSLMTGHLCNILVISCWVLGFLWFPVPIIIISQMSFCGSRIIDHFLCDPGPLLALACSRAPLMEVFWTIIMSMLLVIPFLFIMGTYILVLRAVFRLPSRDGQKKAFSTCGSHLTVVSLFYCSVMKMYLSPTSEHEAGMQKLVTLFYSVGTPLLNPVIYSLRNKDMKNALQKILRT
The experiment is described as follows: cell-based dose-response, cAMP increase by HTRF, HEK293T cells (endogenous RTP1 activated) co-transfected with human Golf, Lucy-FLAG-Rho tagged receptor. The protocol:
(§1) Functional dose-response experiments were performed to evaluate the level of DMTS activity of the modified cell line expressing individual putative DMTS receptors. Using a cell-based assay, mouse receptor Olfr1193, Olfr1093, Olfr1097, Olrf166, Olfr169, Olfr738 and Olfr742, and human receptor OR4S2 and OR52N5 were tested in an HEK293T cell line wherein the endogenous RTP1 gene has been activated and the odorant receptor chaperone protein was expressed (described in WO2016/201153). The mouse receptor genes were tagged with a Lucy-FLAG®-Rho tag combination and the human receptors were tagged with a Rho-FLAG® tag combination resulting in a tag:receptor fusion protein for the cell based assay. Receptor genes were co-transfected with the canonical olfactory human G-protein alpha subunit Golf gene and were exposed to increasing concentrations of the malodor odorant. Co-expression of the human Golf activates the Gs transduction pathway that leads to an internal cAMP increase upon binding to the appropriate ligand. Odorant-induced activity was detected by measuring the cAMP increase in the cytosol using an Homogeneous Time Resolved Fluorescence (HTRF) based kit (CisBio, cAMP dynamic 2 kit, cat. 62AM4PEJ). […] The activity levels are reported by the potency of the DMTS induced-response for each receptor as a measure of the EC50 value (the effective concentration at which the receptor responds at its half-maximal activation efficacy level for a given compound).
(§2) Functional dose-response experiments were performed to confirm the DMTS activity on the DMTS receptors identified in Example 2 and to further characterize their response to DMDS. Using the same cell-based assay described in Example 2, mouse receptors Olfr1193, Olfr1093, Olfr1097, Olfr166, Olfr169, Olfr738, Olfr742 and of human odorant receptor OR4S2 were tested with increasing concentration of DMTS, DMDS or butyric acid (control). […] A weak response for OR4S2 and Olfr169 to butyric acid was visible but was too weak to consider butyric acid as a representative ligand for these receptors. The activity levels are reported by the potency of DMTS or DMDS induced-response for each receptor as a measure of the EC50 value, EC50DMTS and EC50DMDS respectively. […] Competitive antagonists at the malodor binding site of these receptors have the potential to reduce the unpleasant perception of both DMTS and DMDS.

For the next experiment, the target named is T2, mouse receptor Olfr166 (Mus musculus, UniProt Q0VEL6).
T2 construct: cAMP HTRF
T2 sequence (Q0VEL6 1-312): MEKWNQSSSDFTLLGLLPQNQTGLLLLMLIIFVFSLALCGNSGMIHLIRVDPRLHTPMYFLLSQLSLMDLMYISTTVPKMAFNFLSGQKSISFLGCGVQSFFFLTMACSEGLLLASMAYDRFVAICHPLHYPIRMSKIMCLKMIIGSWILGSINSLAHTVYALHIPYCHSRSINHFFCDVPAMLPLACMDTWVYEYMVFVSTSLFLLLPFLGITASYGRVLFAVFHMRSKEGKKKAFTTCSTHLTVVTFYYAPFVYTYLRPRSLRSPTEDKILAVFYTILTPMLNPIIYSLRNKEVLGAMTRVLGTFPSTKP
Described as above. As for the experimental part:
as §1, §2

In the next experiment the target is T3, mouse receptor Olfr169 (Mus musculus, UniProt Q7TS53).
T3 construct: cAMP HTRF
T3 sequence (Q7TS53 1-313): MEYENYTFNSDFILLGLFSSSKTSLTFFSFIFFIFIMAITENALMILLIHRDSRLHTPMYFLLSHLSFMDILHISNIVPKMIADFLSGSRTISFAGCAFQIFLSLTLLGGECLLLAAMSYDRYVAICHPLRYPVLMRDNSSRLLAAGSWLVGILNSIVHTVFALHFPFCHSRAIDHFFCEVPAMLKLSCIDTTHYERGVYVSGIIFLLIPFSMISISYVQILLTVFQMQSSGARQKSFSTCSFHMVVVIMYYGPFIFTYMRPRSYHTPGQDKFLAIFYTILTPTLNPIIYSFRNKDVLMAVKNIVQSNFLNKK
The experiment is described as above. As for the experimental part:
as §1, §2

The target in another experiment is T4, mouse receptor Olfr1097 (Mus musculus, UniProt Q8VGA2).
T4 construct: cAMP HTRF
T4 sequence (Q8VGA2 1-315): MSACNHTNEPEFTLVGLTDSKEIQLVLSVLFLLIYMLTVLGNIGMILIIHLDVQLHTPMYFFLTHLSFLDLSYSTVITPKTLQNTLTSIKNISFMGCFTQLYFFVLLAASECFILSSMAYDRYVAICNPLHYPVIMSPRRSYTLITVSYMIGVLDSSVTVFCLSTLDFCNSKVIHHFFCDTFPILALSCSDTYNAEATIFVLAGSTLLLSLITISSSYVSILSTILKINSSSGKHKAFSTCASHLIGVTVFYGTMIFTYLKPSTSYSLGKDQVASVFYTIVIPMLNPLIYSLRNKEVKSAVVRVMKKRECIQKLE
The description is as above. As for the experimental part: as §1, §2

One compound from patent US11787847B2, “Method of identifying malodor modulating compounds” (FIRMENICH SA, priority 2017, dated 2023) can be followed below.

On to `CSSSC` [DMTS, dimethyl trisulfide], for which the “receptor activity (cAMP increase in the cytosol)” value in experiment [1] is “dose-dependent increase of the receptor activity”. For the same compound, the “receptor activity (cAMP increase)” value in experiment [2] is reported as “strong dose-dependent increase of the receptor activity”. Further, the EC50 at mouse receptor Olfr742 (FIG. 2, Example 2, SEQ ID NO: 14) was found to be 7 µM; on mouse receptor Olfr742 (FIG. 5, Example 5, SEQ ID NO: 14) it was 16 µM; at mouse receptor Olfr166 (FIG. 2, Example 2, SEQ ID NO: 8), 5 µM; at mouse receptor Olfr166 (FIG. 5, Example 5, SEQ ID NO: 8), 11 µM; at mouse receptor Olfr169 (FIG. 2, Example 2, SEQ ID NO: 10), 32 µM; at mouse receptor Olfr169 (FIG. 5, Example 5, SEQ ID NO: 10) it was 23 µM. Besides, the EC50 at mouse receptor Olfr1097 (FIG. 2, Example 2, SEQ ID NO: 6) worked out at 17 µM; on mouse receptor Olfr1097 (FIG. 5, Example 5, SEQ ID NO: 6), 18 µM.
